Source: PMC5357639 (Frontiers in Chemistry, 2017)
Where a SMILES comes first, the peptide text is derived from it. The star is where a group is joined. Orn(α-tetramethylguanidino) = CN(C)C(=N[C@@H](CCCN)C(=O)*)N(C)C

Assay: Peptide recovery in spiked blood and organ homogenates
Type: in vitro ADME, NMRI mice
Conditions: LC-MS MRM, mean n = 3
Procedure: plasma samples and organ homogenates relative to equally concentrated peptide solutions in pure w ater. Concentrations of samples below the LOQ but still detectable were set to the value of the LOD, whereas signals with peak hei ghts below the LOD were set to 0 µg/m L.
Method M3: Recovery rates in plasma and organ homogenates
Li -heparin blood samples obtained from untreated NMRI mice were spiked with Api88 or Api137 (final concentrations: 2.5 or 10 µ g/ m L), incubated (10 min, RT), and centrifuged (2,000x g, 3 min, RT) to obtain plasma. […]
500 µ L, 0.2 or 2 µg/m L, l iver: 500 µ L, 1 or 2.5 µ g/m L, kidne ys: 500 µ L, 20 or 60 µg/m L). […] Recoveries were calculated b y assumin g a total blood (plasma) volume of 75 (25) m L per k g mouse weight 3 and that the measured organ weight (in g) corresponds to the organ volume (in m L). […]
Apidaecin peptides were selectively and sensitively quantified based on the methods established for oncocins Onc72 and Onc112 (Sch midt R. et al J AC 2016). […]
Table S12. Recover y rates of Api88 and Api137 determined in plasma and organ homogenates (n = 3) collected from untreated NMRI mice. […]
500 µ L, 1 or 2.5 µg/m L, kidneys: 500 µ L, 20 o r 60 µg/m L) were added p rior to homogenization and centrifugation. […] The total peptide amount in mice was calculated from the recover y rates shown […]

With `CC[C@H](C)[C@H](NC(=O)[C@H](Cc1ccc(O)cc1)NC(=O)[C@@H](NC(=O)[C@@H]1CCCN1C(=O)[C@H](CCCNC(=N)N)NC(=O)[C@H](CC(N)=O)NC(=O)[C@H](CC(N)=O)NC(=O)[C@H](CCCN)N=C(N(C)C)N(C)C)C(C)C)C(=O)N1CCC[C@H]1C(=O)N[C@@H](CCCNC(=N)N)C(=O)N1CCC[C@H]1C(=O)N[C@@H](CCCNC(=N)N)C(=O)N1CCC[C@H]1C(=O)N1CCC[C@H]1C(=O)N[C@@H](Cc1c[nH]cn1)C(=O)N1CCC[C@H]1C(=O)N[C@@H](CCCNC(=N)N)C(=O)N[C@@H](CC(C)C)C(=O)O` [Api137] ({Orn(α-tetramethylguanidino)}-NNRPVYIPRPRPPHPRL-OH) the “Recovery rate, Kidney, low concentration” value (peptide 20 µg/mL in 500 µL PBS with protease inhibitor added prior to homogenization) was 3.5 ± 0.4% and the “Recovery rate, Kidney, high concentration” value (peptide 60 µg/mL in 500 µL PBS with protease inhibitor added prior to homogenization) was 2.7 ± 0.7%.
